Assay [1] deals with NCI-H929. The assay can be described thus: Inhibition of cell proliferation (CellTiter-Glo or InCell analyzer), NCI-H929. Format: cell-based. As to conditions: Homo sapiens, 72 h / 3 days, values given as IC50 category. The method in brief: In one
(ATP-based viability assays read luminescence as a measure of living cells.)

The subject of assay [2] is Colo205. The assay can be described thus: Inhibition of cell proliferation (CellTiter-Glo or InCell analyzer), Colo205. Format: cell-based. The note with it: Homo sapiens, COLO 205, 72 h / 3 days, values given as IC50 category. The method, boiled down: In one
Assay [3] concerns the target T1, human IGF1R (hIGF1R) (Homo sapiens, UniProt P08069).
T1 construct: containing amino acid residues 957-1367 of human IGF1R; made in house; host or cells: Sf9 cells (baculovirus)
The assay can be described thus: TR-FRET kinase assay of purified hIGF1R. The format is biochemical. As to conditions: activated hIGF1R 0.5 nM, 10 μM ATP, values given as pIC50 category, read-out: IGF-1R pIC50 (converted). On the technique in general: In TR-FRET formats the signal depends on donor and acceptor labels being close together.

T1 sequence (P08069 957-1367): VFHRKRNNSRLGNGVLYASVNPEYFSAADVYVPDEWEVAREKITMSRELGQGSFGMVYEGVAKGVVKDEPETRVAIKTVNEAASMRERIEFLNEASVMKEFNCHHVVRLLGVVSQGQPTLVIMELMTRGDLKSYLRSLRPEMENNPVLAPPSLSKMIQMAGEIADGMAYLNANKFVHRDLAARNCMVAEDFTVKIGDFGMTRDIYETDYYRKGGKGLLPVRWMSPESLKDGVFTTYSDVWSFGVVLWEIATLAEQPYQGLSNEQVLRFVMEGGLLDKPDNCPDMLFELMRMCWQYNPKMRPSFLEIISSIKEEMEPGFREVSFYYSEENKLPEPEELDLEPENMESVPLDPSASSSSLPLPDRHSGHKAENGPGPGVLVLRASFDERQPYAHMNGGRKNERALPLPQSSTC

Regarding `COc1c(Nc2nc(Nc3cccc(F)c3C(N)=O)c3cc[nH]c3n2)ccc(N2CCN(C(C)C)CC2)c1F` [Example 51, 2-fluoro-6-[(2-{[3-fluoro-4-[4-(1-methylethyl)-1-piperazinyl]-2-(methyloxy)phenyl]amino}-1H-pyrrolo[2,3-d]pyrimidin-4-yl)amino]benzamide], the values for the IC50 in assay [1], in assay [2] and in assay [3] were 250 to 1000 nM, 250 to 1000 nM and 1.26 to 3.98 nM, respectively.

As for `COc1cc(N2CCN(CCS(C)(=O)=O)CC2)c(C)cc1Nc1nc(Nc2cccc(F)c2C(N)=O)c2cc[nH]c2n1` [Example 52, 2-fluoro-6-({2-[(5-methyl-2-(methyloxy)-4-{4-[2-(methylsulfonyl)ethyl]-1-piperazinyl}phenyl)amino]-1H-pyrrolo[2,3-d]pyrimidin-4-yl}amino)benzamide], the IC50 in assay [1] was 250 to 1000 nM; in assay [2] it was over 1000 nM; in assay [3], 1.26 to 3.98 nM.

On to `CCCN1CCC=C(c2ccc(Nc3nc(Nc4cc(F)ccc4C(N)=O)c4cc[nH]c4n3)c(OC)c2)C1` [Example 70, 4-fluoro-2-[(2-{[2-(methyloxy)-4-(1-propyl-1,2,5,6-tetrahydro-3-pyridinyl)phenyl]amino}-1H-pyrrolo[2,3-d]pyrimidin-4-yl)amino]benzamide], for which the values for the IC50 in assay [1], in assay [2] and in assay [3] were under 250 nM, under 250 nM and 0.251 to 1 nM, respectively.

For the compound `CCCN1CCCC(c2ccc(Nc3nc(Nc4cc(F)ccc4C(N)=O)c4cc[nH]c4n3)c(OC)c2)C1` (stereo not drawn) [Example 71, 4-fluoro-2-[(2-{[2-(methyloxy)-4-(1-propyl-3-piperidinyl)phenyl]amino}-1H-pyrrolo[2,3-d]pyrimidin-4-yl)amino]benzamide], the IC50 was under 250 nM in assay [1], under 250 nM in assay [2] and 0.251 to 1 nM in assay [3].

Take `CCCN1CCC(c2ccc(Nc3nc(Nc4cc(F)ccc4C(N)=O)c4cc[nH]c4n3)c(OC)c2)CC1` [Example 73, 4-fluoro-2-[(2-{[2-(methyloxy)-4-(1-propyl-4-piperidinyl)phenyl]amino}-1H-pyrrolo[2,3-d]pyrimidin-4-yl)amino]benzamide]: the IC50 in assay [1] was under 250 nM; in assay [2] it was under 250 nM; in assay [3] it was 0.251 to 1 nM.

As for `COc1cc(N2CCN(CC3CC3)CC2)ccc1Nc1nc(Nc2cc(F)ccc2C(N)=O)c2cc[nH]c2n1` [Example 81, 2-[(2-{[4-[4-(cyclopropylmethyl)-1-piperazinyl]-2-(methyloxy)phenyl]amino}-1H-pyrrolo[2,3-d]pyrimidin-4-yl)amino]-4-fluorobenzamide], the IC50 in assay [1] is under 250 nM; in assay [2] it was under 250 nM; in assay [3], 1.26 to 3.98 nM.

Turning to `COc1cc(N2CCOCC2)ccc1Nc1nc(Nc2cc(F)ccc2C(N)=O)c2cc[nH]c2n1` [Example 83, 4-fluoro-2-[(2-{[2-(methyloxy)-4-(4-morpholinyl)phenyl]amino}-1H-pyrrolo[2,3-d]pyrimidin-4-yl)amino]benzamide], the figures for the IC50 in assay [1], in assay [2] and in assay [3] were 250 to 1000 nM, over 1000 nM and 1.26 to 3.98 nM, respectively.

`COc1cc(N2CCN(C(C)C)CC2)ccc1Nc1nc(Nc2cc(Cl)cc(F)c2C(N)=O)c2cc[nH]c2n1` [Example 93, 4-chloro-2-fluoro-6-[(2-{[4-[4-(1-methylethyl)-1-piperazinyl]-2-(methyloxy)phenyl]amino}-1H-pyrrolo[2,3-d]pyrimidin-4-yl)amino]benzamide]: the IC50 in assay [1] was under 250 nM; in assay [2], 250 to 1000 nM; in assay [3], 1.26 to 3.98 nM.

As for `COc1cc(N2CCN(C(C)C)CC2)ccc1Nc1nc(Nc2ccc(F)c(F)c2C(N)=O)c2cc[nH]c2n1` [Example 94, 2,3-difluoro-6-[(2-{[4-[4-(1-methylethyl)-1-piperazinyl]-2-(methyloxy)phenyl]amino}-1H-pyrrolo[2,3-d]pyrimidin-4-yl)amino]benzamide], the IC50 in assay [1] was under 250 nM; in assay [2] it was under 250 nM; in assay [3], 1.26 to 3.98 nM.

Take `COc1cc(C2CCN(C(C)C)CC2)ccc1Nc1nc(Nc2cc(F)c(F)cc2C(N)=O)c2cc[nH]c2n1` [Example 97, 4,5-difluoro-2-[(2-{[4-[1-(1-methylethyl)-4-piperidinyl]-2-(methyloxy)phenyl]amino}-1H-pyrrolo[2,3-d]pyrimidin-4-yl)amino]benzamide]: the IC50 is under 250 nM in assay [1], under 250 nM in assay [2] and 0.251 to 1 nM in assay [3].

Take `CCCN1CCC(c2ccc(Nc3nc(Nc4cc(F)c(F)cc4C(N)=O)c4cc[nH]c4n3)c(OC)c2)CC1` [Example 98, 4,5-difluoro-2-[(2-{[2-(methyloxy)-4-(1-propyl-4-piperidinyl)phenyl]amino}-1H-pyrrolo[2,3-d]pyrimidin-4-yl)amino]benzamide]: the IC50 was under 250 nM in assay [1], under 250 nM in assay [2] and 0.251 to 1 nM in assay [3].

For `COc1cc(N2CCC(C3CCN(CCS(C)(=O)=O)CC3)CC2)ccc1Nc1nc(Nc2cccc(F)c2C(N)=O)c2cc[nH]c2n1` [Example 112, 2-fluoro-6-({2-[(2-(methyloxy)-4-{1′-[2-(methylsulfonyl)ethyl]-4,4′-bipiperidin-1-yl}phenyl)amino]-1H-pyrrolo[2,3-d]pyrimidin-4-yl}amino)benzamide], the IC50 was under 250 nM in assay [1], under 250 nM in assay [2] and 1.26 to 3.98 nM in assay [3].

Regarding `COc1cc(N2CCC(N3CCN(S(C)(=O)=O)CC3)CC2)ccc1Nc1nc(Nc2cccc(F)c2C(N)=O)c2cc[nH]c2n1` [Example 113, 2-fluoro-6-({2-[(2-(methyloxy)-4-{4-[4-(methylsulfonyl)-1-piperazinyl]-1-piperidinyl}phenyl)amino]-1H-pyrrolo[2,3-d]pyrimidin-4-yl}amino)benzamide], the IC50 in assay [1] is under 250 nM; in assay [2], under 250 nM; in assay [3] it was 1.26 to 3.98 nM.

Consider `COc1cc(N2CCC(N3CCN(CCF)CC3)CC2)ccc1Nc1nc(Nc2cccc(F)c2C(N)=O)c2cc[nH]c2n1` [Example 114, 2-fluoro-6-[(2-{[4-{4-[4-(2-fluoroethyl)-1-piperazinyl]-1-piperidinyl}-2-(methyloxy)phenyl]amino}-1H-pyrrolo[2,3-d]pyrimidin-4-yl)amino]benzamide], for which the figures for the IC50 in assay [1], in assay [2] and in assay [3] were under 250 nM, under 250 nM and 1.26 to 3.98 nM, respectively.

`COc1cc(N2CCC(N3CCN(CCS(C)(=O)=O)CC3)CC2)ccc1Nc1nc(Nc2cccc(F)c2C(N)=O)c2cc[nH]c2n1` [Example 115, 2-fluoro-6-[(2-{[2-(methyloxy)-4-(4-{4-[2-(methylsulfonyl)ethyl]-1-piperazinyl}-1-piperidinyl)phenyl]amino}-1H-pyrrolo[2,3-d]pyrimidin-4-yl)amino]benzamide]: the IC50 is under 250 nM in assay [1], under 250 nM in assay [2] and 1.26 to 3.98 nM in assay [3].

Consider `COc1cc2c(cc1Nc1nc(Nc3cccc(F)c3C(N)=O)c3cc[nH]c3n1)CN(C(=O)CN(C)C)CC2` [Example 123, 2-[(2-{[2-(N,N-dimethylglycyl)-6-(methyloxy)-1,2,3,4-tetrahydro-7-isoquinolinyl]amino}-1H-pyrrolo[2,3-d]pyrimidin-4-yl)amino]-6-fluorobenzamide], for which the IC50 in assay [1] is under 250 nM; in assay [2], 250 to 1000 nM; in assay [3], 1.26 to 3.98 nM.

As to `CCNC(=O)c1c(F)cccc1Nc1nc(Nc2cc3c(cc2OC)CCN3C(=O)CN(C)C)nc2[nH]ccc12` [Example 126, 2-[(2-{[1-(N,N-dimethylglycyl)-5-(methyloxy)-2,3-dihydro-1H-indol-6-yl]amino}-1H-pyrrolo[2,3-d]pyrimidin-4-yl)amino]-N-ethyl-6-fluorobenzamide], the IC50 was under 250 nM in assay [1], 250 to 1000 nM in assay [2] and 1.26 to 3.98 nM in assay [3].

For `CNC(=O)c1c(F)cccc1Nc1nc(Nc2cc3c(cc2OC)C(C)(C)CN3C(=O)CN(C)C)nc2[nH]ccc12` [Example 127, 2-[(2-{[1-(N,N-dimethylglycyl)-3,3-dimethyl-5-(methyloxy)-2,3-dihydro-1H-indol-6-yl]amino}-1H-pyrrolo[2,3-d]pyrimidin-4-yl)amino]-6-fluoro-N-methylbenzamide], the values for the IC50 in assay [1], in assay [2] and in assay [3] were under 250 nM, 250 to 1000 nM and 1.26 to 3.98 nM, respectively.

Take `CCN(CC)CC(=O)N1CCc2cc(OC)c(Nc3nc(Nc4cccc(F)c4C(N)=O)c4cc[nH]c4n3)cc21` [Example 136, 2-[(2-{[1-(N,N-diethylglycyl)-5-(methyloxy)-2,3-dihydro-1H-indol-6-yl]amino}-1H-pyrrolo[2,3-d]pyrimidin-4-yl)amino]-6-fluorobenzamide]: the IC50 is under 250 nM in assay [1], 250 to 1000 nM in assay [2] and 1.26 to 3.98 nM in assay [3].

For the compound `COc1cc2c(cc1Nc1nc(Nc3cccc(F)c3C(N)=O)c3cc[nH]c3n1)N(C(=O)CN1CCCC1)CC2` [Example 138, 2-fluoro-6-[(2-{[5-(methyloxy)-1-(1-pyrrolidinylacetyl)-2,3-dihydro-1H-indol-6-yl]amino}-1H-pyrrolo[2,3-d]pyrimidin-4-yl)amino]benzamide], the IC50 in assay [1] is under 250 nM; in assay [2] it was 250 to 1000 nM; in assay [3], 1.26 to 3.98 nM.

Turning to `CNC(=O)c1c(F)cccc1Nc1nc(Nc2cc3c(cc2OC)CCN3C(=O)CN2CCCC2)nc2[nH]ccc12` [Example 139, 2-fluoro-N-methyl-6-[(2-{[5-(methyloxy)-1-(1-pyrrolidinylacetyl)-2,3-dihydro-1H-indol-6-yl]amino}-1H-pyrrolo[2,3-d]pyrimidin-4-yl)amino]benzamide], the IC50 was under 250 nM in assay [1], 250 to 1000 nM in assay [2] and 1.26 to 3.98 nM in assay [3].

As to `COc1cc2c(cc1Nc1nc(Nc3cccc(F)c3C(N)=O)c3cc[nH]c3n1)N(C(=O)CN)CC2` [Example 141, 2-fluoro-6-[(2-{[1-glycyl-5-(methyloxy)-2,3-dihydro-1H-indol-6-yl]amino}-1H-pyrrolo[2,3-d]pyrimidin-4-yl)amino]benzamide], the values for the IC50 in assay [1], in assay [2] and in assay [3] were 250 to 1000 nM, 250 to 1000 nM and 1.26 to 3.98 nM, respectively.

For the origin of these results see patent US7981903B2, “2-[2-{phenylamino}-1H-pyrrolo[2,3-D]pyrimidin-4-yl)amino] benzamide derivatives as IGF-1R inhibitors for the treatment of cancer” (GlaxoSmithKline LLC, priority 2007, dated 2011).
